Measured values from article PMC4650713, “Crystal structure of Bax bound to the BH3 peptide of Bim identifies important contacts for interaction” (Cell Death & Disease, 2015).
Where no end group is shown, it is not given here.

What was measured:
BaxΔC21 [1] = molecular target: T1, BaxΔC21 (Homo sapiens, UniProt Q07812, C126S/C62S); assay: Bax binding assay: SPR, BH3 peptides displacing BaxΔC from a BimBH3 chip; details: SPR competition, 0.5% octylglucoside
T1 construct: made in house; host or cells: Escherichia coli BL21(DE3) or ER2566
T1 sequence (Q07812 1-171 C62S/C126S): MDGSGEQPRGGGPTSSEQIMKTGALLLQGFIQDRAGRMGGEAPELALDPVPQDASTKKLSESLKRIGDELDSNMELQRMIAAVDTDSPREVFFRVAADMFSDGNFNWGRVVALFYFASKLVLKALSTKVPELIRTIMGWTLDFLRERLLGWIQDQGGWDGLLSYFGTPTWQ
Method: Bax binding assays were performed using a protocol modified from that described previously.[18] […] IC50 values were calculated with GraphPad Prism (GraphPad Software, La Jolla, CA, USA).

BaxΔC21 [2] = assay: Core/latch dimer formation of BaxΔC21 with CHAPS and BH3 peptide, analysed by SEC; assay type: biochemical; details: BaxΔC21 2 mg/ml, twofold molar excess of peptide, 1% CHAPS, 1 h at room temperature
full-length Bax = assay: Liposome permeabilisation (carboxy-fluorescein release) by full-length Bax in response to BH3 peptides; assay type: biochemical; details: liposomes 4 μg/ml, 50 nM full-length Bax, 500 nM BH3 peptide, 1 h at RT; three independent experiments
Method: The suspension was extruded through a 100 nm pore size membrane and then passed over a PD10 column to remove unincorporated dye. Liposomes at 4 μg/ml were incubated with 50 nM full-length Bax and 500 nM BH3 peptide in SUV buffer for 1 h at RT. Fluorescence of released self-quenching 5(6)-carboxy-fluorescein was measured with an excitation wavelength of 485 nm and emission wavelength of 535 nm.

[3] = tested on: mitochondria isolated from Bak−/− Bax−/− mouse embryonic fibroblasts (MEFs) ectopically expressing BaxS184L; assay: Cytochrome c release from isolated mitochondria; assay type: cell-based; details: immunoblot of supernatant and pellet, representative of two independent experiments
Method: To test whether this change in binding affinity influenced apoptotic activity, we assessed the ability of each peptide to induce cytochrome c release from mitochondria isolated from Bak^−/− Bax^−/− mouse embryonic fibroblasts (MEFs) ectopically expressing the mitochondrially targeted Bax variant BaxS184L.[28]
BaxS184L was stably expressed in Bax^−/− Bak^−/− MEFs and cytochrome c release assays were performed as described for Bak.[23] Supernatant and pellet fractions were separated and analysed for cytochrome c by immunoblotting.

In the case of “SESQEDIIRNIARHLRQVGDSMDRSIPPGLVNGL [BidBH3 A91R]”, the “binding to BaxΔC21 in the SPR assay” value (BaxΔC21 [1]) is reported as “behaved similar to BimBH3”, the “ability to trigger core/latch dimer formation of BaxΔC21” value (BaxΔC21 [2]) is reported as “largely unaffected” and the “capacity to activate Bax in liposome permeabilisation assay” value (full-length Bax) is reported as “enhanced activity over BidBH3”. For the same sequence, the “potency at releasing cytochrome c from mitochondria” value [3] was “at best a marginally more effective than BidBH3”.
